# Data from ChEMBL document CHEMBL5532725, “SARS-CoV-2 Main Protease Inhibitors That Leverage Unique Interactions with the Solvent Exposed S3 Site of the Enzyme” (ACS Med Chem Lett, 2024).
# Target: Replicase polyprotein 1ab (Severe acute respiratory syndrome coronavirus 2, UniProt P0DTD1)
# Experiment: Inhibition of SARS-CoV-2 MPro preincubated for 30 mins followed by substrate addition by fluorescence based assay
row,Compound,IC50
1,CC1(C)[C@@H]2[C@@H](C(=O)N[C@H](C#N)C[C@@H]3CCNC3=O)N(C(=O)[C@@H](NC(=O)C(F)(F)F)c3ccc(Cl)cc3)C[C@@H]21,420 nM
2,CC1(C)[C@@H]2[C@@H](C(=O)N[C@H](C=O)C[C@@H]3CCNC3=O)N(C(=O)OC(c3ccc(F)cc3)c3ccc(F)cc3)C[C@@H]21,94 nM
3,CC1(C)[C@@H]2[C@@H](C(=O)N[C@H](C=O)C[C@@H]3CCNC3=O)N(C(=O)[C@H](CC3CCCCC3)NC(=O)OCc3ccccc3)C[C@@H]21,250 nM
4,CC1(C)[C@@H]2[C@@H](C(=O)N[C@H](C=O)C[C@@H]3CCNC3=O)N(C(=O)C(c3ccc(Cl)cc3)c3ccc(Cl)cc3)C[C@@H]21,280 nM
5,CC1(C)[C@@H]2[C@@H](C(=O)N[C@H](C=O)C[C@@H]3CCNC3=O)N(C(=O)N(c3ccc(Cl)cc3)c3ccc(Cl)cc3)C[C@@H]21,450 nM
6,CC1(C)[C@@H]2[C@@H](C(=O)N[C@H](C=O)C[C@@H]3CCNC3=O)N(C(=O)OC(c3ccccc3)c3ccccc3)C[C@@H]21,96 nM
7,CC1(C)[C@@H]2[C@@H](C(=O)N[C@H](C=O)C[C@@H]3CCNC3=O)N(C(=O)C(Oc3ccc(Cl)cc3)Oc3ccc(Cl)cc3)C[C@@H]21,280 nM
